Results: article PMC3724985, “Isolation, biochemical characterization, and cloning of a bacteriocin from the poultry-associated Staphylococcus aureus strain CH-91” (Applied Microbiology and Biotechnology, 2012)

System: StpC
Test: Residual proteolytic activity of culture media with E-64 (Hide Powder Azure)
Assay type: biochemical
Settings: E-64 at 0.01, 0.1 and 1.0 mM in S. aureus CH-91 culture (TSB, 37 °C), 0.1 M Tris–HCl pH 7.5, 5 mM cysteine, 5 mM EDTA
Description: S. aureus CH-91 was cultured at 37 °C in TSB supplemented with the cysteine peptidase inhibitor E-64 (1-[N-[(L-3-trans-carboxyoxirane-2-carbonyl)-L-leucyl] amino]-4-guanidinobutane; Sigma) at final concentrations of 1.0, 0.1, and 0.01 mM. Aliquots were removed at 5, 10, and 24 h, and the bacteria-free supernatants were obtained by centrifugation.
The residual proteolytic activity of collected culture media was determined at 37 °C using Hide Powder Azure (Calbiochem) in 0.1 M Tris–HCl (pH 7.5) supplemented with 5 mM cysteine and 5 mM EDTA.

## CC(C)C[C@H](NC(=O)[C@H]1O[C@@H]1C(=O)O)C(=O)NCCCCNC(=N)N (relative stereo) [E-64, 1-[N-[(L-3-trans-carboxyoxirane-2-carbonyl)-L-leucyl]amino]-4-guanidinobutane]
  residual proteolytic activity in culture media containing the inhibitor: No residual proteolytic activity was detected
